Experimental data as given in patent US20250195521A1 (Revolution Medicines, Inc., priority 2020, published 2025).
Read-outs that look alike come from different tables or passages of the source.

Experiments:
KRAS WT = KRAS WT (Homo sapiens (Human), UniProt P01116+P62937); assay: Ras-Raf disruption/FRET/MOA assay (BRAF RBD, Cyclophilin A); assay type: biochemical; conditions: read-out: KRAS WT FRET data IC50
Procedure, shortened: (§1)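 First, 25 μM Cyclophilin A, 12.5 nM His6-Ras-GMPPNP and 50 nM GST-BRAF RBD are mixed with diluted compound at pH 7.3. Next, 3 h at 25° C. Then 10 nM anti-His Eu-W1024 plus 50 nM anti-GST allophycocyanin for 1.5 h before TR-FRET reading.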

KRAS G12S = KRAS G12S (Homo sapiens (Human), UniProt P01116+P62937, G12S); assay: as above; assay type: biochemical; conditions: read-out: KRAS G12S FRET IC50
Procedure, shortened: as §1

KRAS Q61H = KRAS Q61H (Homo sapiens (Human), UniProt P01116+P62937, Q61H); assay: as above; assay type: biochemical
Procedure, shortened: as §1

KRAS G12D = KRAS G12D (Homo sapiens (Human), UniProt P01116+P62937, G12D); assay: as above; assay type: biochemical; conditions: read-out: KRAS G12D FRET IC50
Procedure, shortened: as §1

KRAS G13C = KRAS G13C (Homo sapiens (Human), UniProt P01116+P62937, G13C); assay: as above; assay type: biochemical; conditions: read-out: KRAS G13C FRET IC50
Procedure, shortened: as §1

NRAS G12C = NRAS G12C (Homo sapiens (Human), UniProt P01111+P62937, G12C); assay: as above; assay type: biochemical; conditions: read-out: NRAS G12C FRET data IC50
Procedure, shortened: (§2)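 Ras-GMPPNP (12.5 nM), BRAF RBD (50 nM) and 25 μM Cyclophilin A were incubated with compound for 3 h at 25° C, then detected 1.5 h with anti-His Eu and anti-GST APC; IC50 values follow from the reduced TR-FRET ratio.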

KRAS G12V = KRAS G12V (Homo sapiens (Human), UniProt P01116+P62937, G12V); assay: as above; assay type: biochemical; conditions: read-out: KRAS G12V FRET IC50
Procedure, shortened: as §1

NRAS Q61R = NRAS Q61R (Homo sapiens (Human), UniProt P01111+P62937, Q61R); assay: as above; assay type: biochemical
Procedure, shortened: as §2

KRAS G13D = KRAS G13D (Homo sapiens (Human), UniProt P01116+P62937, G13D); assay: as above; assay type: biochemical; conditions: read-out: KRAS G13D FRET data IC50
Procedure, shortened: as §1

NRAS WT = NRAS WT (Homo sapiens (Human), UniProt P01111+P62937); assay: as above; assay type: biochemical
Procedure, shortened: as §2

NRAS Q61K = NRAS Q61K (Homo sapiens (Human), UniProt P01111+P62937, Q61K); assay: as above; assay type: biochemical
Procedure, shortened: as §2

KRAS G12C = KRAS G12C (Homo sapiens (Human), UniProt P01116+P62937, G12C); assay: as above; assay type: biochemical; conditions: read-out: KRAS G12C FRET IC50
Procedure, shortened: as §1

NCI-H358 (K-Ras G12C) = assay: CellTiter-Glo cell viability assay, NCI-H358; assay type: cell-based, human
Procedure, shortened: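 Luminescent CellTiter-Glo read-out on day 5 after compound exposure; signal expressed as percent of mean DMSO control; four-parameter logistic fit gives the value.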

NRAS WT, sequence (P01111 whole entry): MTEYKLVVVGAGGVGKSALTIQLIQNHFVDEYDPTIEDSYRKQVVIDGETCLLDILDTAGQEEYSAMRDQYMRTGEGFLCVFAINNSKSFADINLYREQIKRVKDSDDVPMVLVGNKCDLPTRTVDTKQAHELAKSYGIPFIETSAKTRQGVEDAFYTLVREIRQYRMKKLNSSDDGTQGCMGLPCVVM
NRAS WT, sequence (P62937 whole entry): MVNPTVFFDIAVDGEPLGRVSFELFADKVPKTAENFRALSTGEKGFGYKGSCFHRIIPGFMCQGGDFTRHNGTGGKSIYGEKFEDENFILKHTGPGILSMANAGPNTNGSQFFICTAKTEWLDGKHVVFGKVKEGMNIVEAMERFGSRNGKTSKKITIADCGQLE
NRAS Q61K, sequence (P01111 whole entry Q61K): as the sequence (P01111 whole entry) above, with Q61K counted along it
NRAS Q61K, sequence (P62937 whole entry): as the sequence (P62937 whole entry) above
KRAS G13C, sequence (P01116 other isoform, or with tags, fused parts or gaps G13C): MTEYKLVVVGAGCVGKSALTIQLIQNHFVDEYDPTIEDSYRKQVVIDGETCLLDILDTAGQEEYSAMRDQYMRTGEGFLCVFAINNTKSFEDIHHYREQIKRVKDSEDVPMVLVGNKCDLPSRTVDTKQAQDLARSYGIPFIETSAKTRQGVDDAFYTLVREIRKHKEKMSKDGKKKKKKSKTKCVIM
KRAS G13C, sequence (P62937 whole entry): as the sequence (P62937 whole entry) above
NRAS G12C, sequence (P01111 whole entry G12C): as the sequence (P01111 whole entry) above, with G12C counted along it
NRAS G12C, sequence (P62937 whole entry): as the sequence (P62937 whole entry) above
NRAS Q61R, sequence (P01111 whole entry Q61R): as the sequence (P01111 whole entry) above, with Q61R counted along it
NRAS Q61R, sequence (P62937 whole entry): as the sequence (P62937 whole entry) above
KRAS WT, sequence (P01116 other isoform, or with tags, fused parts or gaps): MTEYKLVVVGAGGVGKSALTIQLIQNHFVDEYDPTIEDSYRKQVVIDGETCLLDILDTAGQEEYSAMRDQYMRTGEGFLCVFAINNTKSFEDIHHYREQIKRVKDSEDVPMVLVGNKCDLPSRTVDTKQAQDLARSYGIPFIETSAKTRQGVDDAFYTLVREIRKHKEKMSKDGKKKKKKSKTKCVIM
KRAS WT, sequence (P62937 whole entry): as the sequence (P62937 whole entry) above
KRAS G12V, sequence (P01116 other isoform, or with tags, fused parts or gaps G12V): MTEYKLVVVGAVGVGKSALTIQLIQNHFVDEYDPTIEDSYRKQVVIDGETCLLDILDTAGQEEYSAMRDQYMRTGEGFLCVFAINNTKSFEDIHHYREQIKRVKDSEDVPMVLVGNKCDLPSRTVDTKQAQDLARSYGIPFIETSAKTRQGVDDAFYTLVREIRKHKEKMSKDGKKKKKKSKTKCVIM
KRAS G12V, sequence (P62937 whole entry): as the sequence (P62937 whole entry) above
KRAS Q61H, sequence (P01116 other isoform, or with tags, fused parts or gaps Q61H): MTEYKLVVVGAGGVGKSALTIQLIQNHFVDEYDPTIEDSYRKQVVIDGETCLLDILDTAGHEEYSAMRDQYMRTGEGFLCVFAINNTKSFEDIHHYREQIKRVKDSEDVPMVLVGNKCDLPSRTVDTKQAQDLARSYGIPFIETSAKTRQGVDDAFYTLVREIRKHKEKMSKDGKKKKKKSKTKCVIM
KRAS Q61H, sequence (P62937 whole entry): as the sequence (P62937 whole entry) above
KRAS G12D, sequence (P01116 other isoform, or with tags, fused parts or gaps G12D): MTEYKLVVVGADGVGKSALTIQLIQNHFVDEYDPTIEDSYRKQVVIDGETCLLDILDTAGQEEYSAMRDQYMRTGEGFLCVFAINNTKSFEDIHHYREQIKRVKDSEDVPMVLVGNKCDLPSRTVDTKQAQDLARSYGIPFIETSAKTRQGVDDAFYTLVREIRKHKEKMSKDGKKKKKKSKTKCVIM
KRAS G12D, sequence (P62937 whole entry): as the sequence (P62937 whole entry) above
KRAS G12C, sequence (P01116-2 other isoform, or with tags, fused parts or gaps G12C): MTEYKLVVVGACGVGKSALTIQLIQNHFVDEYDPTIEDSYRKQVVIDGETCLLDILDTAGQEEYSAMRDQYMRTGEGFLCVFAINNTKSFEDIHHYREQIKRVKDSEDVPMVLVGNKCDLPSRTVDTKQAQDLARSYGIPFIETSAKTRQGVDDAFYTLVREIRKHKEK
KRAS G12C, sequence (P62937 whole entry): as the sequence (P62937 whole entry) above
KRAS G12S, sequence (P01116 other isoform, or with tags, fused parts or gaps G12S): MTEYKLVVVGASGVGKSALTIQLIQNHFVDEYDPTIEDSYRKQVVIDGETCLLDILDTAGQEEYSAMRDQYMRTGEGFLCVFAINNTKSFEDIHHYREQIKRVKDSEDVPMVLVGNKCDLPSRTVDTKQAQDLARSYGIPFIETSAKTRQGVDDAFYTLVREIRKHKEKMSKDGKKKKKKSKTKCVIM
KRAS G12S, sequence (P62937 whole entry): as the sequence (P62937 whole entry) above
KRAS G13D, sequence (P01116 other isoform, or with tags, fused parts or gaps G13D): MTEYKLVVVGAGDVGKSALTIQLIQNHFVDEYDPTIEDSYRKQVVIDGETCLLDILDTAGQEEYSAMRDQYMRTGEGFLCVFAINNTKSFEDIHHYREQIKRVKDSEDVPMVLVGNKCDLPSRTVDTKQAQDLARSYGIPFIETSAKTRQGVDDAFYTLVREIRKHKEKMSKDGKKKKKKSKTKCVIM
KRAS G13D, sequence (P62937 whole entry): as the sequence (P62937 whole entry) above

IC50 (KRAS WT) [nM]	IC50 (KRAS G12S) [nM]	IC50 (KRAS Q61H) [nM]	IC50 (KRAS G12D) [nM]	IC50 (KRAS G13C) [nM]	IC50 (NRAS G12C) [nM]	IC50 (KRAS G12V) [nM]	IC50 (NRAS Q61R) [nM]	IC50 (KRAS G13D) [nM]	IC50 (NRAS WT) [nM]	IC50 (NRAS Q61K) [nM]	IC50 (KRAS G12C) [nM]	IC50 (NCI-H358 (K-Ras G12C); 5-day treatment, read-out: H358 Cell Viability assay data (K-Ras G12C, IC50)) [µM]	IC50 (NCI-H358 (K-Ras G12C); Homo sapiens, NCI-H358, 120 h, 5-day treatment, read-out: H358 Cell Viability assay data (K-Ras G12C, IC50)) [µM]	SMILES	IC50 (NCI-H358 (K-Ras G12C); Homo sapiens, NCI-H358, 120 h, read-out: H358 Cell Viability assay data (K-Ras G12C, IC50, uM), 5-day treatment) [µM]
1000 to 10000	1000 to 10000	100 to 1000	1000 to 10000	100 to 1000	100 to 1000	1000 to 10000	1000 to 10000	1000 to 10000	1000 to 10000	100 to 1000	100 to 1000			CCn1c(-c2cccnc2[C@H](C)OC)c2c3cc(ccc31)-c1csc(n1)C[C@H](NC(=O)[C@H](C(C)C)N1C[C@@H](c3ccccc3)CC1=O)C(=O)N1CCC[C@H](N1)C(=O)OCC(C)(C)C2 (single isomer, unassigned) [Compound A544]	
1000 to 10000	1000 to 10000	100 to 1000	> 10000	1000 to 10000	1000 to 10000	1000 to 10000	1000 to 10000	1000 to 10000	1000 to 10000	1000 to 10000	1000 to 10000			CCn1c(-c2cccnc2[C@H](C)OC)c2c3cc(ccc31)-c1cccc(c1)C[C@H](NC(=O)[C@H](C(C)C)N(C)C(C)=O)C(=O)N1CCC[C@H](N1)C(=O)OCC(C)(C)C2 [Compound A61]	
1000 to 10000	1000 to 10000	100 to 1000	> 10000	100 to 1000	1000 to 10000	1000 to 10000		1000 to 10000	1000 to 10000	1000 to 10000	1000 to 10000	0.01 to 0.1	< 0.01	CCn1c(-c2cccnc2[C@H](C)OC)c2c3cc(ccc31)-c1cc(O)cc(c1)C[C@H](NC(=O)C1CCC3C1C3(F)F)C(=O)N1CCC[C@H](N1)C(=O)OCC(C)(C)C2 (stereo partly shown) [Compound A181]	
100 to 1000	100 to 1000	100 to 1000	1000 to 10000	100 to 1000	100 to 1000	100 to 1000	100 to 1000	100 to 1000	100 to 1000	100 to 1000	100 to 1000			CCn1c(-c2cccnc2[C@H](C)OC)c2c3cc(ccc31)-c1csc(n1)C[C@H](NC(=O)C1(F)CCC1)C(=O)N1CCC[C@H](N1)C(=O)OCC(C)(C)C2 [Compound A361]	
100 to 1000	100 to 1000	100 to 1000	1000 to 10000	100 to 1000	100 to 1000	100 to 1000	1000 to 10000	1000 to 10000	100 to 1000	100 to 1000	100 to 1000			CCn1c(-c2cccnc2[C@H](C)OC)c2c3cc(ccc31)-c1csc(n1)C[C@H](NC(=O)C1(F)CC1)C(=O)N1CCC[C@H](N1)C(=O)OCC(C)(C)C2 [Compound A362]	
100 to 1000	1000 to 10000	100 to 1000	1000 to 10000	100 to 1000	100 to 1000	1000 to 10000	100 to 1000	1000 to 10000	100 to 1000	100 to 1000	100 to 1000			CCn1c(-c2cc(N3CCN(C)CC3)cnc2[C@H](C)OC)c2c3cc(ccc31)-c1csc(n1)C[C@H](NC(=O)[C@H](C(C)C)N(C)C(=O)[C@H]1CCCS1(=O)=O)C(=O)N1CCC[C@H](N1)C(=O)OCC(C)(C)C2 [Compound A439]	

SMILES	IC50 (KRAS WT) [nM]	IC50 (KRAS G12S) [nM]	IC50 (KRAS Q61H) [nM]	IC50 (KRAS G12D) [nM]	IC50 (KRAS G13C) [nM]	IC50 (NRAS G12C) [nM]	IC50 (KRAS G12V) [nM]	IC50 (NRAS Q61R) [nM]	IC50 (KRAS G13D) [nM]	IC50 (NRAS WT) [nM]	IC50 (NRAS Q61K) [nM]	IC50 (KRAS G12C) [nM]	IC50 (NCI-H358 (K-Ras G12C); 5-day treatment, read-out: H358 Cell Viability assay data (K-Ras G12C, IC50)) [µM]	IC50 (NCI-H358 (K-Ras G12C); Homo sapiens, NCI-H358, 120 h, 5-day treatment, read-out: H358 Cell Viability assay data (K-Ras G12C, IC50)) [µM]	IC50 (NCI-H358 (K-Ras G12C); Homo sapiens, NCI-H358, 120 h, read-out: H358 Cell Viability assay data (K-Ras G12C, IC50, uM), 5-day treatment) [µM]
CCn1c(-c2cccnc2[C@H](C)OC)c2c3cc(ccc31)-c1csc(n1)C[C@H](NC(=O)[C@H](C(C)C)N(C)C(=O)[C@H]1CCN(S(C)(=O)=O)C1)C(=O)N1CCC[C@H](N1)C(=O)OCC(C)(C)C2 [Compound A237]	1000 to 10000	1000 to 10000		> 10000	1000 to 10000	1000 to 10000	1000 to 10000	1000 to 10000	> 10000	1000 to 10000	1000 to 10000	1000 to 10000			< 0.01
